Measurements published in patent US20080145432A1, “Fine Particle and Pharmaceutical Preparation” (priority 2005, published 2008).

Tested on: BALB/c mice
Test: Drug effect durability: serum glucose concentration after hypodermic injection
Type: in vivo
Settings: 10 hours after administration under the dorsal skin, 15 μg insulin, fasted mice
Protocol: A particulate preparation enclosing 15 μg (WAKO) of insulin prepared in a method of example 9 was dispersed in 100 μL of normal saline (Otsuka), and was administered to 7-week-old male BALB/c mice (weighing 19 to 24 g) after fasting for 12 hours, under the dorsal skin by using 29 G injection needle (Terumo) (in the control group, 100 μL of normal saline (Otsuka) dissolving 15 μg of insulin was used). After administration, animals were kept fasted in individual cages, and blood samples collected from the caudal artery before and after administration were tested by biochemical automatic analyzer (Fuji Drychem 3500V of Fuji Film), by using measuring slide (GLU-WIII of Fuji Film), and changes of glucose concentration were measured at time intervals, and the average of serum glucose concentration changes of two animals each was calculated.

insulin
serum glucose concentration relative to level before administration: 80%
